# Source: ChEMBL document CHEMBL1121775, “Synthesis and antimalarial effects of N2-aryl-N4-[(dialkylamino)alkyl]- and N4-aryl-N2-[(dialkylamino)alkyl]-2,4-quinazolinediamines” (J Med Chem, 1981)
# “And” between values parts separate entries of the source, which are not always exact repeats. Equal entries are not always repeated.
# Tests used:
# [1] = system: Plasmodium berghei; test: Antimalarial effect against trophozoite-induced Plasmodium berghei in mice (Mus musculus) after 40 mg/kg subcutaneous dose; format: functional
# [2] = system: Mus musculus; test: Number of toxic deaths at a dose of 640 mg/kg; format: toxicity, organism-based; design: dose 640 mg/kg; conditions: in vivo
# [3] = The ratio of SD90 of the quinine hydrochloride, to the SD90 of the test substance for the Dose of 47 mg/kg; format: functional
# [4] = system: Plasmodium berghei; test: Antimalarial effect against trophozoite-induced Plasmodium berghei in mice (Mus musculus) at 160 mg/kg subcutaneous dose; format: functional
# [5] = system: Plasmodium berghei; test: Antimalarial activity against trophozoite-induced Plasmodium berghei in mice (Mus musculus); format: functional
# [6] = system: Plasmodium berghei; test: (§1) Antimalarial effect against trophozoite-induced Plasmodium berghei in mice (Mus musculus) at 640 mg/kg subcutaneous dose; format: functional
# [7] = The ratio of SD90 of the quinine hydrochloride, to the SD90 of the test substance for the Dose of 16 mg/kg; format: functional
# [8] = system: Mus musculus; test: Number of mice cured at a dose of 320 mg/kg sc; format: functional; conditions: route subcutaneous
# [9] = system: Mus musculus; test: Number of mice cured at a subcutaneous dose of 640 mg/kg.; format: functional
# [10] = system: Plasmodium berghei; test: Antimalarial effect against trophozoite-induced Plasmodium berghei in mice (Mus musculus) at 80 mg/kg subcutaneous dose; format: functional
# [11] = system: Plasmodium berghei; test: Antimalarial effect against trophozoite-induced Plasmodium berghei in mice (Mus musculus) after 20 mg/kg subcutaneous dose; format: functional
# [12] = system: Plasmodium berghei; test: Antimalarial effect against trophozoite-induced Plasmodium berghei in mice (Mus musculus) at 320 mg/kg subcutaneous dose; format: functional
# [13] = system: Mus musculus; test: Number of mice cured at a subcutaneous dose of 320 mg/kg.; format: functional
# [14] = system: Plasmodium berghei; test: Antimalarial activity against trophozoite-induced Plasmodium berghei in mice (Mus musculus) at 160 mg/kg subcutaneous dose; format: functional
# [15] = system: Mus musculus; test: Number of mice cured at a subcutaneous dose of 160 mg/kg.; format: functional
# [16] = system: Mus musculus; test: Number of mice cured at a dose of 640 mg/kg sc; format: functional; conditions: route subcutaneous
# [17] = system: Mus musculus; test: Number of toxic deaths at a dose of 320 mg/kg; format: toxicity, organism-based; design: dose 320 mg/kg; conditions: in vivo
# [18] = The ratio of SD90 of the quinine hydrochloride, to the SD90 of the test substance for the Dose of 35 mg/kg; format: functional
# [19] = system: Mus musculus; test: Antimalarial effect against trophozoite-induced Plasmodium berghei in mice (Mus musculus) at dosage of 20 mg/kg after subcutaneous administration.; format: functional
# [20] = The ratio of SD90 of the quinine hydrochloride, to the SD90 of the test substance for the Dose of 22 mg/kg; format: functional
# [21] = The ratio of SD90 of the quinine hydrochloride, to the SD90 of the test substance for the Dose of 97 mg/kg/day; format: functional
# [22] = system: Plasmodium berghei; test: as §1; format: functional; remark: listed apart in the source
# [23] = system: Mus musculus; test: No of toxic deaths at dose of 640 mg/kg; format: ADME, organism-based; design: dose 640 mg/kg; conditions: in vivo
# [24] = The ratio of SD90 of the quinine hydrochloride, to the SD90 of the test substance for the Dose of 82 mg/kg; format: functional
# [25] = The ratio of SD90 of the quinine hydrochloride, to the SD90 of the test substance for the Dose of mg/kg; format: functional
Structure (SMILES),MST [1],No. of toxic deaths [2],MST [4],SD90 [5],MST [10],MST [11],MST [12],No. of survivals [13],MST ([11]; 20 mg/kg),No. of survivals [16],MST ([1]; 40 mg/kg),MST ([4]; 160 mg/kg),further results
CSc1ccc(Nc2nc(NCCCN3CCCC3)c3ccccc3n2)cc1,1 days,5,6.8 days,47 mg/kg/day,–,–,–,–,–,–,–,–,Ratio [3]: 1.6
CN1CCCC1CCNc1nc(Nc2ccc(C(F)(F)F)cc2)nc2ccccc12 (centres undefined),1.2 days,–,10.5 days,16 mg/kg/day,3.2 days,1 days,15.5 days,–,–,–,–,–,MST [6]: 25.8 days; Ratio [7]: 4.7; No. of cured [8]: 2; No. of cured [9]: 4
CCN(CC)CCNc1nc(Nc2ccc(Cl)c(Cl)c2)nc2ccc(N)cc12,3.8 days,2,–,47 mg/kg/day,6.8 days,–,–,5,1.6 days and 2 days,3,–,–,MST [14]: 29.8 days; No. of survivals [15]: 4; Ratio [3]: 1.6
CN(C)C1CCC(Nc2nc(Nc3ccc(Cl)c(Cl)c3)c3ccccc3n2)CC1 (centres undefined),–,2,12.9 days,–,7.9 days,0.3 days,9.9 days,2,–,3,4.1 days and 3.7 days,–,MST [14]: 12.6 days; No. of survivals [15]: 2
c1ccc2c(NCCCN3CCCC3)nc(Nc3nccs3)nc2c1,0.3 days,3,0.3 days,–,–,–,–,–,–,–,–,–,MST [6]: 0.9 days
CCN(CC)Cc1cc(Nc2nc(NCCN3CCCC3)c3ccccc3n2)ccc1O,1.7 days,1,10.2 days,–,2.1 days,0.3 days,–,1,–,1,–,–,No. of toxic deaths [17]: 1
CCN(CC)CCNc1nc(Nc2ccc(Cl)cc2)nc2ccccc12,–,–,11.1 days,35 mg/kg/day,6.2 days,1.6 days,–,3,–,5,4.1 days and 4.6 days,–,No. of survivals [15]: 2; Ratio [18]: 2.1; No. of toxic deaths [17]: 2
FC(F)(F)c1ccc(Nc2nc(NCCCN3CCCC3)c3cc(Cl)ccc3n2)cc1,0.4 days,–,–,22 mg/kg/day,1.6 days,0.2 days,14.6 days,1,–,–,–,4.6 days and 4 days,MST ([6]; 640 mg/kg): 26.5 days and 23.3 days; No. of survivals ([16]; 640 mg/kg): 2 and 3; MST [19]: 0.4 days; Ratio [20]: 3.4
Clc1cccc(Nc2nc(NCCN3CCCC3)c3ccccc3n2)c1,–,–,–,97 mg/kg/day,1.4 days,0.4 days,4.2 days,–,–,–,0.6 days and 0.7 days,2.8 days and 3.5 days,Ratio [21]: 0.8; MST ([22]; 640 mg/kg): 10.2 days and 11.1 days
CC1(C)N=C(N)N=C(N)N1c1ccc(Cl)cc1 [CYCLOGUANIL],13.4 days,5,–,–,–,–,–,–,7.9 days and 8.1 days,–,–,–,No. of toxic deaths [23]: 5; MST ([10]; 80 mg/kg): 21.6 days and 21.9 days
CCN(CC)CCNc1nc(Nc2ccc(Cl)c(Cl)c2)nc2cc(NCc3ccc(Cl)c(Cl)c3)ccc12,–,–,–,82 mg/kg/day,–,–,–,–,0.1 days and 0.2 days and 0.3 days,–,0.1 days and 0.2 days and 0.3 days,1.3 days and 1 days and 0.7 days,Ratio [24]: 0.9; MST [22]: 8.9 days; MST ([10]; 80 mg/kg): 0.3 days and 0.6 days; MST ([12]; 320 mg/kg): 1.7 days and 2 days and 2.5 days
CCN(CC)CCNc1nc(Nc2ccc(Cl)c(Cl)c2)nc2cc(N)ccc12,–,–,–,30.5 mg/kg/day,–,–,–,3,0.6 days and 0.9 days,4,3.2 days and 3.5 days,13.2 days and 13.5 days,MST [6]: 29.8 days; MST ([10]; 80 mg/kg): 6 days and 6.3 days; Ratio [25]: 30.5; MST ([12]; 320 mg/kg): 16.8 days and 16.9 days
